Assay results as given in patent publication US5798336A, “Antimicrobial peptides” (priority 1995, dated 1998).
Where a SMILES comes first, the peptide text is derived from it.

Legend:
[1] = tested on: N. gonorrhoeae strain WS1; details: strain WS1, 500
P. aeruginosa ATCC 27853 = details: ATCC 27853, 500
S. aureus strain 8325-4 [2] = details: strain 8325-4, 500
[3] = tested on: N. gonorrhoeae strain FA 102
S. aureus strain 8325-4 [4] = details: for % Survival of S. aureus: Table 3, all peptides at 5×10^-4 M

| Molecule | Log Kill (500 μg/ml) N. gonorrhoeae strain WS1 [1] [log] | Log Kill (500 μg/ml) P. aeruginosa ATCC 27853 (P. aeruginosa ATCC 27853) [log] | Log Kill (500 μg/ml) S. aureus strain 8325-4 (S. aureus strain 8325-4 [2]) [log] | other results |
| --- | --- | --- | --- | --- |
| CC[C@H](C)[C@H](N)C(=O)N[C@H](C(=O)NCC(=O)NCC(=O)N[C@@H](CCCNC(=N)N)C(=O)N[C@@H](CCC(=O)O)C(=O)N[C@@H](CO)C(=O)N[C@@H](CCCNC(=N)N)C(=O)N1CCC[C@H]1C(=O)N[C@@H](Cc1c[nH]cn1)C(=O)N[C@@H](CO)C(=O)N[C@@H](CCCNC(=N)N)C(=O)N1CCC[C@H]1C(=O)N[C@@H](Cc1ccc(O)cc1)C(=O)N[C@@H](CCSC)C(=O)N[C@@H](C)C(=O)N[C@@H](Cc1ccc(O)cc1)C(=O)N[C@@H](CC(C)C)C(=O)N[C@@H](CCC(N)=O)C(=O)N[C@H](C(=O)O)[C@@H](C)CC)[C@@H](C)CC [CG 1-20] (H-IIGGRESRPHSRPYMAYLQI-OH) | 2.57 | 5.507 | 0.3 | Log Kill (500 μg/ml) N. gonorrhoeae strain WSI [1]: 0.43 log; Log Kill (500 μg/ml) P. aeruginosa ATCC 278533 (P. aeruginosa ATCC 27853): 1.0 log |
| CC[C@H](C)[C@H](NC(=O)[C@H](C)NC(=O)[C@H](CCCNC(=N)N)NC(=O)[C@H](CCCNC(=N)N)NC(=O)[C@H](C)NC(=O)[C@@H](NC(=O)[C@@H](NC(=O)[C@H](Cc1c[nH]cn1)NC(=O)[C@H](CCC(N)=O)NC(=O)[C@H](CCC(N)=O)NC(=O)[C@@H](NC(=O)[C@H](CC(N)=O)NC(=O)[C@H](CCC(=O)O)NC(=O)[C@H](CCCNC(=N)N)NC(=O)[C@@H](N)CCCNC(=N)N)[C@@H](C)O)[C@@H](C)CC)[C@@H](C)O)C(=O)N[C@@H](CCCNC(=N)N)C(=O)N[C@@H](Cc1c[nH]cn1)C(=O)N1CCC[C@H]1C(=O)N[C@@H](CCC(N)=O)C(=O)N[C@@H](Cc1ccc(O)cc1)C(=O)O [CG 61-80] (H-RRENTQQHITARRAIRHPQY-OH) | 0 | – | 0.58 | Log Kill (500 μg/ml) P. aeruginosa ATCC 278533 (P. aeruginosa ATCC 27853): 5.15 log |
| CC(C)C[C@H](NC(=O)CNC(=O)[C@H](CCC(=O)O)NC(=O)[C@H](CCC(N)=O)NC(=O)[C@H](C)NC(=O)[C@H](CCCNC(=N)N)NC(=O)[C@@H]1CCCN1C(=O)[C@H](CC(C)C)NC(=O)[C@H](C)NC(=O)[C@@H](NC(=O)[C@@H]1CCCN1C(=O)[C@H](CC(N)=O)NC(=O)[C@@H](NC(=O)[C@H](CC(N)=O)NC(=O)[C@H](CCCNC(=N)N)NC(=O)[C@H](CC(N)=O)NC(=O)[C@H](CCCNC(=N)N)NC(=O)[C@H](CCCNC(=N)N)NC(=O)[C@@H](NC(=O)[C@@H](N)CCCNC(=N)N)C(C)C)C(C)C)C(C)C)C(=O)O [CG 97-116] (H-RVRRNRNVNPVALPRAQEGL-OH) | -0.21 | 5.93 | -0.1 | Log Kill (500 μg/ml) N. gonorrhoeae strain WSI [1]: 0.2 log; Log Kill (500 μg/ml) P. aeruginosa ATCC 278533 (P. aeruginosa ATCC 27853): 0.22 log |
| CC(C)C[C@H](NC(=O)[C@@H](NC(=O)CNC(=O)[C@@H]1CCCN1C(=O)[C@@H](N)CCCNC(=N)N)[C@@H](C)O)C(=O)N[C@@H](CS)C(=O)N[C@H](C(=O)N[C@H](C(=O)N[C@@H](C)C(=O)NCC(=O)N[C@@H](Cc1c[nH]c2ccccc12)C(=O)NCC(=O)N[C@@H](CCCNC(=N)N)C(=O)O)C(C)C)[C@@H](C)O [CG 117-129] (H-RPGTLCTVAGWGR-OH) | 0.05 | 0.86 | 0 | – |
| CSCC[C@H](NC(=O)[C@H](CO)NC(=O)[C@@H](NC(=O)[C@H](CCCNC(=N)N)NC(=O)CNC(=O)[C@H](Cc1c[nH]c2ccccc12)NC(=O)CNC(=O)[C@H](C)NC(=O)[C@@H](NC(=O)[C@@H](NC(=O)[C@H](CS)NC(=O)[C@H](CC(C)C)NC(=O)[C@@H](NC(=O)CNC(=O)[C@@H]1CCCN1C(=O)[C@@H](N)CCCNC(=N)N)[C@@H](C)O)[C@@H](C)O)C(C)C)C(C)C)C(=O)N[C@@H](CCCNC(=N)N)C(=O)N[C@@H](CCCNC(=N)N)C(=O)NCC(=O)N[C@H](C(=O)O)[C@@H](C)O [CG 117-136] (H-RPGTLCTVAGWGRVSMRRGT-OH) | – | 5.8 | 5.34 | Log Kill (500 μg/ml) P. aeruginosa ATCC 278533 (P. aeruginosa ATCC 27853): 5.88 log |
| CSCC[C@H](NC(=O)[C@H](CO)NC(=O)[C@@H](NC(=O)[C@H](CCCNC(=N)N)NC(=O)CNC(=O)[C@H](Cc1c[nH]c2ccccc12)NC(=O)CNC(=O)[C@H](C)NC(=O)[C@@H](NC(=O)[C@@H](NC(=O)[C@@H](N)CS)[C@@H](C)O)C(C)C)C(C)C)C(=O)N[C@@H](CCCNC(=N)N)C(=O)N[C@@H](CCCNC(=N)N)C(=O)NCC(=O)N[C@H](C(=O)O)[C@@H](C)O [CG 122-136] (H-CTVAGWGRVSMRRGT-OH) | 4.18 | 4.75 | 0 | – |
| CSCC[C@H](NC(=O)[C@H](CO)NC(=O)[C@@H](NC(=O)[C@H](CCCNC(=N)N)NC(=O)CNC(=O)[C@@H](N)Cc1c[nH]c2ccccc12)C(C)C)C(=O)N[C@@H](CCCNC(=N)N)C(=O)N[C@@H](CCCNC(=N)N)C(=O)NCC(=O)N[C@H](C(=O)O)[C@@H](C)O [CG 127-136] (H-WGRVSMRRGT-OH) | 3.20 | 0.27 | 0 | – |
| CC[C@H](C)[C@H](NC(=O)CNC(=O)[C@H](Cc1c[nH]cn1)NC(=O)[C@H](C)NC(=O)[C@@H](NC(=O)[C@H](CC(N)=O)NC(=O)[C@H](CC(N)=O)NC(=O)[C@H](CS)NC(=O)[C@H](CC(C)C)NC(=O)[C@H](CC(C)C)NC(=O)[C@@H]1CCCN1C(=O)CNC(=O)CNC(=O)[C@H](CO)NC(=O)[C@H](CC(=O)O)NC(=O)CNC(=O)[C@H](CCCCN)NC(=O)[C@@H](N)Cc1ccccc1)C(C)C)C(=O)N[C@H](C(=O)N[C@@H](CO)C(=O)N[C@@H](Cc1ccc(O)cc1)C(=O)O)C(C)C [CG 177-197] (H-FKGDSGGPLLCNNVAHGIVSY-OH) | 0.68 | -0.79 | – | – |
| O=C(N[C@H](CO)[C@H](O)c1ccc([N+](=O)[O-])cc1)C(Cl)Cl [Chloramphenicol, reference compound] | – | – | – | bactericidal capacity compared with antibiotics and defensin pool (in words) ([3]; N. gonorrhoeae strain FA 102, each compound 5.0×10^-4 M, 30 min at 37° C., FIG. 5): more effective at this concentration than the defensin pool or the test peptides |
| N=C(N)NCCC[C@H](NC(=O)[C@H](CCC(N)=O)NC(=O)[C@H](CC(N)=O)NC(=O)[C@H](Cc1ccc(O)cc1)NC(=O)[C@H](CCC(N)=O)NC(=O)[C@@H]1CCCN1C(=O)[C@@H](N)Cc1c[nH]cn1)C(=O)O [HPQYNQR] (H-HPQYNQR-OH) | – | – | – | ED50 for N. gonorrhoeae [3]: 50 µM |
| CC[C@H](C)[C@H](N)C(=O)N[C@H](C(=O)NCC(=O)NCC(=O)N[C@@H](CCCNC(=N)N)C(=O)O)[C@@H](C)CC [IIGGR] (H-IIGGR-OH) | – | – | – | ED50 (S. aureus strain 8325-4 [4]): 430 µM |
| CC[C@H](C)[C@H](N)C(=O)N[C@H](C(=O)NCC(=O)NCC(=O)N[C@@H](CCCNC(=N)N)C(=O)O)C(C)C [IVGGR] (H-IVGGR-OH) | – | – | – | ED50 (S. aureus strain 8325-4 [4]): > 875 µM |
| H^1m QYNQR | – | – | – | % Survival of S. aureus (S. aureus strain 8325-4 [4]): 37.3% |
| H^3m PQYNQR | – | – | – | % Survival of S. aureus (S. aureus strain 8325-4 [4]): 18.3% |
| H^Benzyl PQYNQR | – | – | – | % Survival of S. aureus (S. aureus strain 8325-4 [4]): 99.0% |
| H^Dnp PQYNQR | – | – | – | % Survival of S. aureus (S. aureus strain 8325-4 [4]): 102.2% |
